Experimental data from US20260028354A1, “TETRAHYDRONAPHTHALENE DERIVATIVES AS ESTROGEN RECEPTOR DEGRADERS” (REGENT OF THE UNIVERSITY OF MICHIGAN, priority 2022, published 2026).

Assay: Western blot analysis for "B" compounds
Format: cell-based
Details: read-out: Traditional Western Degradation Potency (DC50)
Method in brief: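 Compound-treated cells lysed in RIPA buffer with protease inhibitors; equal protein (BCA) run on 10% SDS-PAGE, transferred to PVDF and probed with target antibodies. Band intensities quantified by densitometry and normalized to GAPDH.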

| Compound | DC50 |
| --- | --- |
| O=C1CCC(N2C(=O)c3cc4c(cc3C2=O)CN(C2CCN(C(=O)C3CCN(c5ccc([C@@H]6c7ccc(O)cc7CC[C@@H]6c6ccccc6)cc5)CC3)CC2)C4)C(=O)N1 (stereo partly drawn) [Compound B7, 2-(2,6-dioxopiperidin-3-yl)-6-(1-(1-(4-((1R,2S)-6-hydroxy-2-phenyl-1,2,3,4-tetrahydronaphthalen-1-yl)phenyl)piperidine-4-carbonyl)piperidin-4-yl)-6,7-dihydropyrrolo[3,4-f]isoindole-1,3(2H,5H)-dione] | < 10 nM |
| O=C1CCC(N2C(=O)c3cc4c(cc3C2=O)CN(C(=O)c2ccc(CC(=O)N3CCCC(Oc5ccc([C@@H]6c7ccc(O)cc7CC[C@@H]6c6ccccc6)cc5)C3)cc2)C4)C(=O)N1 (stereo partly drawn) [Compound B16, 2-(2,6-dioxopiperidin-3-yl)-6-(4-(2-(3-(4-((1R,2S)-6-hydroxy-2-phenyl-1,2,3,4-tetrahydronaphthalen-1-yl)phenoxy)piperidin-1-yl)-2-oxoethyl)benzoyl)-6,7-dihydropyrrolo[3,4-f]isoindole-1,3(2H,5H)-dione] | 10 to 100 nM |
| C[C@H]1CC2(CCN(CC(=O)N3Cc4cc5c(cc4C3)C(=O)N(C3CCC(=O)NC3=O)C5=O)CC2)CN1c1ccc([C@@H]2c3ccc(O)cc3CC[C@@H]2c2ccccc2)cc1 (stereo partly drawn) [Compound B25, 2-(2,6-dioxopiperidin-3-yl)-6-(2-((S)-2-(4-((1R,2S)-6-hydroxy-2-phenyl-1,2,3,4-tetrahydronaphthalen-1-yl)phenyl)-3-methyl-2,8-diazaspiro[4.5]decan-8-yl)acetyl)-6,7-dihydropyrrolo[3,4-f]isoindole-1,3(2H,5H)-dione] | > 100 nM |
| O=C1CCC(N2C(=O)c3cc4c(cc3C2=O)CN(CC2CN(C(=O)C3CN(c5ccc([C@@H]6c7ccc(O)cc7CC[C@@H]6c6ccccc6)cc5)C3)C2)C4)C(=O)N1 (stereo partly drawn) [Compound B37, 2-(2,6-dioxopiperidin-3-yl)-6-((1-(1-(4-((1R,2S)-6-hydroxy-2-phenyl-1,2,3,4-tetrahydronaphthalen-1-yl)phenyl)azetidine-3-carbonyl)azetidin-3-yl)methyl)-6,7-dihydropyrrolo[3,4-f]isoindole-1,3(2H,5H)-dione] | > 100 nM |
| O=C1CCC(N2C(=O)c3cc4c(cc3C2=O)CN(CC(=O)N2CCC(n3cc(-c5ccc([C@@H]6c7ccc(O)cc7CC[C@@H]6c6ccccc6)cc5)cn3)CC2)C4)C(=O)N1 (stereo partly drawn) [Compound B58, 2-(2,6-dioxopiperidin-3-yl)-6-(2-(4-(4-(4-((1R,2S)-6-hydroxy-2-phenyl-1,2,3,4-tetrahydronaphthalen-1-yl)phenyl)-1H-pyrazol-1-yl)piperidin-1-yl)-2-oxoethyl)-6,7-dihydropyrrolo[3,4-f]isoindole-1,3(2H,5H)-dione] | > 100 nM |
| O=C1CCC(N2C(=O)c3cc4c(cc3C2=O)CN(CC(=O)N2CC(n3cc(-c5ccc([C@@H]6c7ccc(O)cc7CC[C@@H]6c6ccccc6)cc5)cn3)C2)C4)C(=O)N1 (stereo partly drawn) [Compound B59, 2-(2,6-dioxopiperidin-3-yl)-6-(2-(3-(4-(4-((1R,2S)-6-hydroxy-2-phenyl-1,2,3,4-tetrahydronaphthalen-1-yl)phenyl)-1H-pyrazol-1-yl)azetidin-1-yl)-2-oxoethyl)-6,7-dihydropyrrolo[3,4-f]isoindole-1,3(2H,5H)-dione] | > 100 nM |
| O=C1CCC(N2C(=O)c3cc4c(cc3C2=O)CN(CC(=O)N2CCC(Oc3ccc([C@@H]5c6ccc(O)cc6CC[C@@H]5c5ccccc5)cc3)CC2)C4)C(=O)N1 (stereo partly drawn) [Compound B60, 2-(2,6-dioxopiperidin-3-yl)-6-(2-(4-(4-((1R,2S)-6-hydroxy-2-phenyl-1,2,3,4-tetrahydronaphthalen-1-yl)phenoxy)piperidin-1-yl)-2-oxoethyl)-6,7-dihydropyrrolo[3,4-f]isoindole-1,3(2H,5H)-dione] | > 100 nM |
| O=C1CCC(N2C(=O)c3cc4c(cc3C2=O)CN(C2CCN(CC3CN(c5ccc([C@@H]6c7ccc(O)cc7CC[C@@H]6c6ccccc6)cc5)C3)CC2)C4)C(=O)N1 (stereo partly drawn) [Compound B61, 2-(2,6-dioxopiperidin-3-yl)-6-(1-((1-(4-((1R,2S)-6-hydroxy-2-phenyl-1,2,3,4-tetrahydronaphthalen-1-yl)phenyl)azetidin-3-yl)methyl)piperidin-4-yl)-6,7-dihydropyrrolo[3,4-f]isoindole-1,3(2H,5H)-dione] | < 10 nM |

Second part, the compound after the results:

| DC50 | Compound |
| --- | --- |
| > 100 nM | O=C1CCC(N2C(=O)c3cc4c(cc3C2=O)CN(CC(=O)N2CC3(CCN(c5ccc([C@@H]6c7ccc(O)cc7CC[C@@H]6c6ccccc6)cc5)CC3)C2)CCC4)C(=O)N1 (mixture of isomers) [Compound B261, 2-(2,6-dioxopiperidin-3-yl)-6-(2-(7-(4-((1R,2S)-6-hydroxy-2-phenyl-1,2,3,4-tetrahydronaphthalen-1-yl)phenyl)-2,7-diazaspiro[3.5]nonan-2-yl)-2-oxoethyl)-6,7,8,9-tetrahydroazepino[3,4-f]isoindole-1,3(2H,5H)-dione] |
| > 100 nM | C[C@@H]1CC2(CCN(c3ccc([C@@H]4c5ccc(O)cc5CC[C@@H]4c4ccc(F)cc4)cc3)CC2)CN1CC(=O)N1Cc2cc3c(cc2C1)C(=O)N(C1CCC(=O)NC1=O)C3=O (stereo partly drawn) [Compound B27, 2-(2,6-dioxopiperidin-3-yl)-6-(2-((R)-8-(4-((1R,2S)-2-(4-fluorophenyl)-6-hydroxy-1,2,3,4-tetrahydronaphthalen-1-yl)phenyl)-3-methyl-2,8-diazaspiro[4.5]decan-2-yl)acetyl)-6,7-dihydropyrrolo[3,4-f]isoindole-1,3(2H,5H)-dione] |
| > 100 nM | O=C1CCC(N2C(=O)c3cc4c(cc3C2=O)CN(CC(=O)N2CCC[C@H](Oc3ccc([C@@H]5c6ccc(O)cc6CC[C@@H]5c5ccc(F)cc5)cc3)C2)C4)C(=O)N1 (stereo partly drawn) [Compound B36, 2-(2,6-dioxopiperidin-3-yl)-6-(2-((S)-3-(4-((1R,2S)-2-(4-fluorophenyl)-6-hydroxy-1,2,3,4-tetrahydronaphthalen-1-yl)phenoxy)piperidin-1-yl)-2-oxoethyl)-6,7-dihydropyrrolo[3,4-f]isoindole-1,3(2H,5H)-dione] |
| > 100 nM | O=C1CCC(N2C(=O)c3cc4c(cc3C2=O)CN(C(=O)CN2CCC[C@H](Oc3ccc([C@@H]5c6ccc(O)cc6CC[C@@H]5c5ccc(F)cc5)cc3)C2)C4)C(=O)N1 (stereo partly drawn) [Compound B38, 2-(2,6-dioxopiperidin-3-yl)-6-(2-((S)-3-(4-((1R,2S)-2-(4-fluorophenyl)-6-hydroxy-1,2,3,4-tetrahydronaphthalen-1-yl)phenoxy)piperidin-1-yl)acetyl)-6,7-dihydropyrrolo[3,4-f]isoindole-1,3(2H,5H)-dione] |
| > 100 nM | O=C1CCC(N2C(=O)c3cc4c(cc3C2=O)CCN(CC(=O)N2CCC3(CC2)CCN(c2ccc([C@@H]5c6ccc(O)cc6CC[C@@H]5c5ccccc5)cc2)CC3)CC4)C(=O)N1 (stereo partly drawn) [Compound B39, 2-(2,6-dioxopiperidin-3-yl)-7-(2-(9-(4-((1R,2S)-6-hydroxy-2-phenyl-1,2,3,4-tetrahydronaphthalen-1-yl)phenyl)-3,9-diazaspiro[5.5]undecan-3-yl)-2-oxoethyl)-6,7,8,9-tetrahydroazepino[4,5-f]isoindole-1,3(2H,5H)-dione] |
| > 100 nM | O=C1CCC(N2C(=O)c3cc4c(cc3C2=O)CCN(C(=O)CN2CCC3(CC2)CCN(c2ccc([C@@H]5c6ccc(O)cc6CC[C@@H]5c5ccccc5)cc2)CC3)CC4)C(=O)N1 (stereo partly drawn) [Compound B40, 2-(2,6-dioxopiperidin-3-yl)-7-(2-(9-(4-((1R,2S)-6-hydroxy-2-phenyl-1,2,3,4-tetrahydronaphthalen-1-yl)phenyl)-3,9-diazaspiro[5.5]undecan-3-yl)acetyl)-6,7,8,9-tetrahydroazepino[4,5-f]isoindole-1,3(2H,5H)-dione] |
| > 100 nM | O=C1CCC(N2C(=O)c3cc4c(cc3C2=O)CCN(CC(=O)N2CC3(CCN(c5ccc([C@@H]6c7ccc(O)cc7CC[C@@H]6c6ccccc6)cc5)CC3)C2)CC4)C(=O)N1 (stereo partly drawn) [Compound B41, 2-(2,6-dioxopiperidin-3-yl)-7-(2-(7-(4-((1R,2S)-6-hydroxy-2-phenyl-1,2,3,4-tetrahydronaphthalen-1-yl)phenyl)-2,7-diazaspiro[3.5]nonan-2-yl)-2-oxoethyl)-6,7,8,9-tetrahydroazepino[4,5-f]isoindole-1,3(2H,5H)-dione] |
| > 100 nM | O=C1CCC(N2C(=O)c3cc4c(cc3C2=O)CCN(C(=O)CN2CC3(CCN(c5ccc([C@@H]6c7ccc(O)cc7CC[C@@H]6c6ccccc6)cc5)CC3)C2)CC4)C(=O)N1 (stereo partly drawn) [Compound B42, 2-(2,6-dioxopiperidin-3-yl)-7-(2-(7-(4-((1R,2S)-6-hydroxy-2-phenyl-1,2,3,4-tetrahydronaphthalen-1-yl)phenyl)-2,7-diazaspiro[3.5]nonan-2-yl)acetyl)-6,7,8,9-tetrahydroazepino[4,5-f]isoindole-1,3(2H,5H)-dione] |
| > 100 nM | O=C1CCC(N2C(=O)c3cc4c(cc3C2=O)CCN(CC(=O)N2CC3(CCN(c5ccc([C@@H]6c7ccc(O)cc7CC[C@@H]6c6ccc(F)cc6)cc5)CC3)C2)CC4)C(=O)N1 (stereo partly drawn) [Compound B53, 2-(2,6-dioxopiperidin-3-yl)-7-(2-(7-(4-((1R,2S)-2-(4-fluorophenyl)-6-hydroxy-1,2,3,4-tetrahydronaphthalen-1-yl)phenyl)-2,7-diazaspiro[3.5]nonan-2-yl)-2-oxoethyl)-6,7,8,9-tetrahydroazepino[4,5-f]isoindole-1,3(2H,5H)-dione] |
| > 100 nM | O=C1CCC(N2C(=O)c3cc4c(cc3C2=O)CN(CC(=O)N2CCC3(CC2)CCN(c2ccc([C@@H]5c6ccc(O)cc6CC[C@@H]5c5ccc(F)cc5)cn2)CC3)C4)C(=O)N1 (stereo partly drawn) [Compound B54, 2-(2,6-dioxopiperidin-3-yl)-6-(2-(9-(5-((1S,2S)-2-(4-fluorophenyl)-6-hydroxy-1,2,3,4-tetrahydronaphthalen-1-yl)pyridin-2-yl)-3,9-diazaspiro[5.5]undecan-3-yl)-2-oxoethyl)-6,7-dihydropyrrolo[3,4-f]isoindole-1,3(2H,5H)-dione] |
| 10 to 100 nM | O=C1CCC(N2C(=O)c3cc4c(cc3C2=O)CN(CC(=O)N2CCC3(CC2)CCN(c2ccc([C@@H]5c6ccc(O)cc6CC[C@@H]5c5ccc(F)cc5)cc2)C3)C4)C(=O)N1 (stereo partly drawn) [Compound B55, 2-(2,6-dioxopiperidin-3-yl)-6-(2-(2-(4-((1R,2S)-2-(4-fluorophenyl)-6-hydroxy-1,2,3,4-tetrahydronaphthalen-1-yl)phenyl)-2,8-diazaspiro[4.5]decan-8-yl)-2-oxoethyl)-6,7-dihydropyrrolo[3,4-f]isoindole-1,3(2H,5H)-dione] |
